In patent US20260042764A1, “COMPOSITIONS AND METHODS FOR INHIBITION OF KRAS” (TheRas, Inc., priority 2022, published 2026):

Assays:
[1] = target: T1, Avi-KRAS G12V (1-169) GppNHp/RAF1 RBD-3xFLAG (52-151) (Homo sapiens, UniProt P01116, G12V); assay: Raf1-KRAS G12V-GppNHP disruption HTRF assay (Biological Example 1); type: binding; conditions: KRAS G12V, GppNHp-loaded; Table 11
T1 construct: Avi-KRAS G12V (1-169)
Protocol: (§1) A protein:protein interaction (PPI) Homogeneous Time Resolved Fluorescence (HTRF) assay was used to determine the effectiveness of compounds of the present disclosure in disrupting KRAS protein and effector RAF1 binding.
(§2) The assay buffer included: 50 mM Tris pH 7.5, 100 mM NaCl, 5 mM MgCl2, 0.1% BSA, 0.01% Tween, and 10% DMSO. The bead buffer included: 50 mM Tris pH 7.5, and 0.01% Tween 20. Assay volume of 20 μL was used in a 384 well plate-low volume format.
(§3) The HTRF assay employed the following protocol:
(§4) Protein mix was prepared in assay buffer, and dispensed on plates, 10 μL per well, then incubated for 1 h at room temperature, with 700 rpm shaking, Reagents mix was prepared and dispensed on plates, 10 μL per well, then incubated for 1 h at room temperature, with 700 rpm shaking.
(§5) Data was reported as percentage of activity, with DMSO as 100%. Data was plotted and analyzed using Prism 8.

[2] = target: T2, Avi-KRAS WT (1-169) GppNHp/RAF1 RBD-3xFLAG (52-151) (Homo sapiens, UniProt P01116); assay: Raf1-KRAS WT-GppNHP disruption HTRF assay (Biological Example 1); type: binding; conditions: KRAS WT, GppNHp-loaded; Table 11
T2 construct: Avi-KRAS WT (1-169)
T2 sequence (P01116 1-169 isoform P01116-2): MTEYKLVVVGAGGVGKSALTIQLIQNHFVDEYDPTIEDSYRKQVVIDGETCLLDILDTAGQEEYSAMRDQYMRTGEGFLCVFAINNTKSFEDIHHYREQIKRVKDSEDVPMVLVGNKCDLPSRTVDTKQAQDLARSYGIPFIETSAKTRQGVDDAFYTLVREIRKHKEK
Protocol: as §1, §2, §3, §4, §5

[3] = target: T3, Avi-KRAS G12R (1-169) GppNHp/RAF1 RBD-3xFLAG (52-151) (Homo sapiens, UniProt P01116, G12R); assay: Raf1-KRAS G12R-GppNHP disruption HTRF assay (Biological Example 1); type: binding; conditions: KRAS G12R, GppNHp-loaded; Table 11
T3 construct: Avi-KRAS G12R (1-169)
T3 sequence (P01116 1-169 isoform P01116-2 G12R): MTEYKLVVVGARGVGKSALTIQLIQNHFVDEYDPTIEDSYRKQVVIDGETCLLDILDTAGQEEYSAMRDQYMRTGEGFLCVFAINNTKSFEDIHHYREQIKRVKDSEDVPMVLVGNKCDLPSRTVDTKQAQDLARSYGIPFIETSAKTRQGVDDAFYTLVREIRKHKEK
Protocol: as §1, §2, §3, §4, §5

[4] = target: T4, Avi-KRAS G12D (1-169) GppNHp/RAF1 RBD-3xFLAG (52-151) (Homo sapiens, UniProt P01116, G12D); assay: Raf1-KRAS G12D-GppNHP disruption HTRF assay (Biological Example 1); type: binding; conditions: KRAS G12D, GppNHp-loaded; Table 11
T4 construct: Avi-KRAS G12D (1-169)
T4 sequence (P01116 1-169 isoform P01116-2 G12D): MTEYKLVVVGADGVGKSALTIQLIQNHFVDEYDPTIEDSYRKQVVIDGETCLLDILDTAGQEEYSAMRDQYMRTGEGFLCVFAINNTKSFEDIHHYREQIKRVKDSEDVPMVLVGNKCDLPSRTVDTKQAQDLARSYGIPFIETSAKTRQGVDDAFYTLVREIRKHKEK
Protocol: as §1, §2, §3, §4, §5

GP2d cells (KRAS G12D) = assay: Cell-based pERK HTRF assay in GP2d cell (Biological Example 2); conditions: GP2d, GP2d (KRAS G12D) cells, pERK HTRF
Protocol: A pERK assay (Perkin Elmer) was used to determine the effectiveness of compounds in disrupting KRAS G12D protein/effector signaling in cells.
On Day 1, cells (GP2d) were seeded into 96-well plates at 3×10^4 cells/well in 80 μL complete growth media (DMEM, 10% FBS).
On Day 2, cells were treated with compounds at 0.25% DMSO. The source plate was created with compounds diluted in media at 5-fold the final assay concentration. The compounds were run in a 9-point concentration curve starting at 1 μM or in a 9-point concentration curve starting at 100 nM, with a half-log dilution between concentrations. Twenty μL was transferred onto the cell plates (final volume in wells was 100 μL). Plates were harvested after 60 min incubation by aspirating media and adding kit-supplied 1x supplemented lysis buffer to all wells (50 μL per well). Plates were then placed on a plate shaker and incubated at 850 rpm for an additional 30 min.
Antibody mixture solution was prepared by diluting aliquoted d2 and Eu Cryptate antibodies 1:20 in kit supplied detection buffer, and mixing the diluted antibodies solutions (1:1 v:v).
Samples were homogenized by pipetting up and down and then transferred (16 μL of cell lysates) from the 96-well cell culture plate to two wells of the HTRF 384-well detection plate containing the antibody solution. Plates were centrifuged (524 g for 1 min) and allowed to incubate between 4 and 24 h at room temperature. Maximum signal is reached after 4 h incubation time and remains stable over a period of 24 hours. Therefore, readings can be made between 4 and 24 h of incubation. Plates were centrifuged again (524 g for Imin), then analyzed on the EnVision plate reader using the following settings: Excitation 320 nm, Bandwidth 75 nm; Emission 615 nm, Bandwidth 85 nm; Gain 100%; Flashes 100; Lag 60 μs.

T1 sequence (P01116 1-169 isoform P01116-2 G12V): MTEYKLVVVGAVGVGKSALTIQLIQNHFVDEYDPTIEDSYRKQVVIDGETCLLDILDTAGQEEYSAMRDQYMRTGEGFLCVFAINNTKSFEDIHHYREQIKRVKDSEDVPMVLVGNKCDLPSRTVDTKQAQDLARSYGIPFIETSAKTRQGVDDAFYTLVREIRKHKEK

| Structure (SMILES) | IC50 [1] [µM] | IC50 [2] [µM] | IC50 [3] [µM] | IC50 [4] [µM] | IC50 (GP2d cells (KRAS G12D)) [µM] |
| --- | --- | --- | --- | --- | --- |
| CN(c1nc(OCC23CCCN2CCC3)nc2c(F)c(-c3ccc(F)c4sc(N)nc34)c(C(F)(F)F)cc12)C1CC(O)C12CCCC2 (single isomer, unassigned) [Compound 10] | > 10 | > 10 | > 10 | > 10 |  |
| CO[C@H]1CN2CCC[C@@]2(COc2nc(N(C)[C@H]3C[C@@H](O)C3)c3cc(C(F)(F)F)c(-c4ccc(F)c5sc(N)nc45)c(F)c3n2)C1 (atropisomer, axis not shown) [Compound 13] | 1 to 10 | 0.1 to 1 |  | 0.1 to 1 |  |
| Nc1nc2c(-c3c(C(F)(F)F)cc4c(N5CC6CCC(C5)C6O)nc(OCC56CCCN5CCC6)nc4c3F)ccc(F)c2s1 (stereo not drawn) [Compound 52] | 1 to 10 | 1 to 10 |  | 1 to 10 |  |
| CO[C@@H]1C[C@@H](COc2nc(N(C)[C@H]3C[C@@H](O)C3)c3cc(C(F)(F)F)c(-c4ccc(F)c5sc(N)nc45)c(F)c3n2)N(C)C1 (atropisomer, axis not shown) [Compound 17] | > 10 | 1 to 10 |  | > 10 |  |
| Nc1nc2c(-c3c(C(F)(F)F)cc4c(N5CCCC(O)C5)nc(OCC56CCCN5CCC6)nc4c3F)ccc(F)c2s1 (stereo not drawn) [Compound 53] | > 10 | > 10 | 1 to 10 | 1 to 10 |  |
| Nc1nc2c(-c3c(C(F)(F)F)cc4c(N[C@H]5CC[C@H](O)CC5)nc(OCC56CCCN5CCC6)nc4c3F)ccc(F)c2s1 [Compound 63] | > 10 | 1 to 10 |  | 1 to 10 |  |
| CO[C@H]1CN2CCC[C@]2(COc2nc(N(C)[C@H]3C[C@@H](O)C3)c3cc(C(F)(F)F)c(-c4ccc(F)c5sc(N)nc45)c(F)c3n2)C1 (atropisomer, axis not shown) [Compound 14] | 1 to 10 | 0.1 to 1 |  | 1 to 10 |  |
| CN(c1nc(OC[C@@]23CCCN2C[C@H](F)C3)nc2c(F)c(-c3ccc(F)c4sc(N)c(C#N)c34)c(C(F)(F)F)cc12)[C@]1(CC#N)C[C@H](O)C1 (atropisomer, axis not shown) [Compound 249] | 1 to 10 | 0.1 to 1 | 0.1 to 1 | 0.1 to 1 |  |
| CN(c1nc(OCC2(CN3CCOCC3)CC2)nc2c(F)c(-c3ccc(F)c4sc(N)c(C#N)c34)c(C(F)(F)F)cc12)[C@H]1C[C@@H](O)C1 (atropisomer, axis not shown) [Compound 122] | 0.1 to 1 | 0.1 to 1 | 0.1 to 1 | 0.1 to 1 |  |
| Nc1nc2c(-c3c(C(F)(F)F)cc4c(N[C@H]5CCC[C@@H](O)C5)nc(OCC56CCCN5CCC6)nc4c3F)ccc(F)c2s1 (atropisomer, axis not shown) [Compound 67] | > 10 | 1 to 10 |  | 1 to 10 |  |
| CCN(c1nc(OCC23CCCN2CCC3)nc2c(F)c(-c3ccc(F)c4sc(N)nc34)c(C(F)(F)F)cc12)[C@H]1C[C@@H](O)C1 (atropisomer, axis not shown) [Compound 7] | 1 to 10 | 1 to 10 |  | 1 to 10 |  |
| Nc1nc2c(-c3c(C(F)(F)F)cc4c(N5CCC(CO)C5)nc(OCC56CCCN5CCC6)nc4c3F)ccc(F)c2s1 (stereo not drawn) [Compound 56] | > 10 | 1 to 10 | > 10 | 1 to 10 |  |
| N#Cc1c(N)sc2c(F)ccc(-c3c(C(F)(F)F)cc4c(N5CC6(CC(O)C6)C5)nc(OC[C@@]56CCCN5C[C@H](F)C6)nc4c3F)c12 [Compound 58] | 0.1 to 1 | 0.1 to 1 |  | 0.1 to 1 | 0.1 to 1 |
